Measured values as given in ChEMBL document CHEMBL4387741, “Optimization of novel reversible Bruton's tyrosine kinase inhibitors identified using Tethering-fragment-based screens” (Bioorg Med Chem, 2019).

Legend:
[1] = target: Casein kinase I isoform gamma-3 (Homo sapiens) (UniProt Q9Y6M4); assay: Inhibition of wild-type human full length CSNK1G3 (M1 to K447 residues) expressed in bacterial expression system at 1 uM by Kinomescan method relative to control
[2] = target: Mitogen-activated protein kinase kinase kinase 20 (Homo sapiens) (UniProt Q9NYL2); assay: Inhibition of wild-type human partial length ZAK (M1 to L331 residues) expressed in bacterial expression system at 1 uM by Kinomescan method relative to control
[3] = target: Cyclin-dependent kinase 19 (Homo sapiens) (UniProt Q9BWU1); assay: Inhibition of wild-type human partial length CDK11 (M1 to N360 residues) expressed in bacterial expression system at 1 uM by Kinomescan method relative to control
[4] = system: Tyrosine-protein kinase ABL1 (Homo sapiens), P00519 [F317L]; assay: Inhibition of human phosphorylated ABL1 F317L mutant (S229 to K512 residues) expressed in mammalian expression system at 1 uM by Kinomescan method relative to control
[5] = target: Casein kinase I isoform epsilon (Homo sapiens) (UniProt P49674); assay: Inhibition of wild-type human full length CSNK1E (M1 to K416 residues) expressed in bacterial expression system at 1 uM by Kinomescan method relative to control
[6] = target: BDNF/NT-3 growth factors receptor (Homo sapiens) (UniProt Q16620); assay: Inhibition of wild-type human partial length TRKB (Q547 to G838 residues) expressed in mammalian expression system at 1 uM by Kinomescan method relative to control
[7] = target: Mitogen-activated protein kinase kinase kinase 6 (Homo sapiens) (UniProt O95382); assay: Inhibition of wild-type human partial length ASK2 (M278 to R972 residues) expressed in mammalian expression system at 1 uM by Kinomescan method relative to control
[8] = target: Serine/threonine-protein kinase Nek11 (Homo sapiens) (UniProt Q8NG66); assay: Inhibition of wild-type human partial length NEK11 (M1 to E313 residues) expressed in mammalian expression system at 1 uM by Kinomescan method relative to control
[9] = target: Receptor-type tyrosine-protein kinase FLT3 (Homo sapiens) (UniProt P36888); assay: Inhibition of wild-type human partial length FLT3 (V592 to Y969 residues) expressed in bacterial expression system at 1 uM by Kinomescan method relative to control
[10] = target: Cyclin-dependent kinase 9 (Homo sapiens) (UniProt P50750); assay: Inhibition of wild-type human full length CDK9 (M1 to F372 residues) expressed in bacterial expression system at 1 uM by Kinomescan method relative to control
[11] = target: Serine/threonine-protein kinase PAK 6 (Homo sapiens) (UniProt Q9NQU5); assay: Inhibition of wild-type human partial length PAK6 (N298 to C681 residues) expressed in bacterial expression system at 1 uM by Kinomescan method relative to control
[12] = target: Serine/threonine-protein kinase SIK2 (Homo sapiens) (UniProt Q9H0K1); assay: Inhibition of wild-type human full length SIK2 (M1 to N926 residues) expressed in bacterial expression system at 1 uM by Kinomescan method relative to control
[13] = target: Serine/threonine-protein kinase 32C (Homo sapiens) (UniProt Q86UX6); assay: Inhibition of wild-type human partial length YANK3 (M68 to G486 residues) expressed in bacterial expression system at 1 uM by Kinomescan method relative to control
[14] = target: Tyrosine-protein kinase Yes (Homo sapiens) (UniProt P07947); assay: Inhibition of wild-type human partial length YES (T257 to L543 residues) expressed in bacterial expression system at 10 uM by Kinomescan method relative to control
[15] = target: Ribosomal protein S6 kinase alpha-2 (Homo sapiens) (UniProt Q15349); assay: Inhibition of wild-type human partial length N-terminal RSK3 kinase domain 1 (M1 to Q385 residues) expressed in bacterial expression system at 10 uM by Kinomescan method relative to control
[16] = target: Phosphatidylinositol 5-phosphate 4-kinase type-2 gamma (Homo sapiens) (UniProt Q8TBX8); assay: Inhibition of wild-type human partial length PIP5K2C (M1 to A421 residues) expressed in mammalian expression system at 10 uM by Kinomescan method relative to control
[17] = target: Dual specificity protein kinase CLK2 (Homo sapiens) (UniProt P49760); assay: Inhibition of wild-type human partial length CLK2 (D144 to R498 residues) expressed in bacterial expression system at 10 uM by Kinomescan method relative to control
[18] = system: Receptor-type tyrosine-protein kinase FLT3 (Homo sapiens), P36888 [UNDEFINED MUTATION]; assay: Inhibition of human partial length FLT3 ITD mutant expressed in bacterial expression system at 10 uM by Kinomescan method relative to control
[19] = target: Mitogen-activated protein kinase kinase kinase kinase 5 (Homo sapiens) (UniProt Q9Y4K4); assay: Inhibition of wild-type human partial length MAP4K5 (M1 to P297 residues) expressed in bacterial expression system at 10 uM by Kinomescan method relative to control
[20] = target: Mitotic checkpoint serine/threonine-protein kinase BUB1 (Homo sapiens) (UniProt O43683); assay: Inhibition of wild-type human partial length BUB1 (Q724 to K1085 residues) expressed in mammalian expression system at 10 uM by Kinomescan method relative to control
[21] = target: Tyrosine-protein kinase ABL1 (Homo sapiens) (UniProt P00519); assay: Inhibition of wild-type human phosphorylated ABL1 (S229 to K512 residues) expressed in mammalian expression system at 10 uM by Kinomescan method relative to control
[22] = target: Serine/threonine-protein kinase DCLK2 (Homo sapiens) (UniProt Q8N568); assay: Inhibition of wild-type human partial length DCAMKL2 (K273 to V664 residues) expressed in bacterial expression system at 10 uM by Kinomescan method relative to control
[23] = system: Phosphatidylinositol 4,5-bisphosphate 3-kinase catalytic subunit alpha isoform (Homo sapiens), P42336 [M1043I]; assay: Inhibition of human partial length PIK3CA M1043I mutant (R108 to N1068 residues) expressed in mammalian expression system at 10 uM by Kinomescan method relative to control
[24] = system: Mast/stem cell growth factor receptor Kit (Homo sapiens), P10721 [A829P]; assay: Inhibition of human partial length KIT A829P mutant (I571 to D952 residues) expressed in mammalian expression system at 10 uM by Kinomescan method relative to control
[25] = target: Protein kinase C eta type (Homo sapiens) (UniProt P24723); assay: Inhibition of wild-type human partial length PRKCH (S324 to P683 residues) expressed in bacterial expression system at 10 uM by Kinomescan method relative to control
[26] = target: G protein-coupled receptor kinase 4 (Homo sapiens) (UniProt P32298); assay: Inhibition of wild-type human full length GRK4 (M1 to C578 residues) expressed in bacterial expression system at 10 uM by Kinomescan method relative to control
[27] = target: Serine/threonine-protein kinase 16 (Homo sapiens) (UniProt O75716); assay: Inhibition of wild-type human partial length STK16 (G11 to I305 residues) expressed in bacterial expression system at 10 uM by Kinomescan method relative to control
Chain of Serine/threonine-protein kinase 16 (Homo sapiens) (O75716 whole entry, the tested form may be a part): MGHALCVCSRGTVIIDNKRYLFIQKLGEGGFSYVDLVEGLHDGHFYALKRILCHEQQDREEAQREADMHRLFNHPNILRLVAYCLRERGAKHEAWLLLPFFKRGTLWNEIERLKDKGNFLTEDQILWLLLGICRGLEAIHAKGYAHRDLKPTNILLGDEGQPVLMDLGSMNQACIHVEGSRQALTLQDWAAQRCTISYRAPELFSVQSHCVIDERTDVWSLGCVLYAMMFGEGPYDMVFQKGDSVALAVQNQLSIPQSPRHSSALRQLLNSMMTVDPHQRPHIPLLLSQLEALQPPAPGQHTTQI

Chain of Receptor-type tyrosine-protein kinase FLT3 (Homo sapiens), P36888 [UNDEFINED MUTATION] (P36888 whole entry, looked up, change not shown, the tested form may be a part): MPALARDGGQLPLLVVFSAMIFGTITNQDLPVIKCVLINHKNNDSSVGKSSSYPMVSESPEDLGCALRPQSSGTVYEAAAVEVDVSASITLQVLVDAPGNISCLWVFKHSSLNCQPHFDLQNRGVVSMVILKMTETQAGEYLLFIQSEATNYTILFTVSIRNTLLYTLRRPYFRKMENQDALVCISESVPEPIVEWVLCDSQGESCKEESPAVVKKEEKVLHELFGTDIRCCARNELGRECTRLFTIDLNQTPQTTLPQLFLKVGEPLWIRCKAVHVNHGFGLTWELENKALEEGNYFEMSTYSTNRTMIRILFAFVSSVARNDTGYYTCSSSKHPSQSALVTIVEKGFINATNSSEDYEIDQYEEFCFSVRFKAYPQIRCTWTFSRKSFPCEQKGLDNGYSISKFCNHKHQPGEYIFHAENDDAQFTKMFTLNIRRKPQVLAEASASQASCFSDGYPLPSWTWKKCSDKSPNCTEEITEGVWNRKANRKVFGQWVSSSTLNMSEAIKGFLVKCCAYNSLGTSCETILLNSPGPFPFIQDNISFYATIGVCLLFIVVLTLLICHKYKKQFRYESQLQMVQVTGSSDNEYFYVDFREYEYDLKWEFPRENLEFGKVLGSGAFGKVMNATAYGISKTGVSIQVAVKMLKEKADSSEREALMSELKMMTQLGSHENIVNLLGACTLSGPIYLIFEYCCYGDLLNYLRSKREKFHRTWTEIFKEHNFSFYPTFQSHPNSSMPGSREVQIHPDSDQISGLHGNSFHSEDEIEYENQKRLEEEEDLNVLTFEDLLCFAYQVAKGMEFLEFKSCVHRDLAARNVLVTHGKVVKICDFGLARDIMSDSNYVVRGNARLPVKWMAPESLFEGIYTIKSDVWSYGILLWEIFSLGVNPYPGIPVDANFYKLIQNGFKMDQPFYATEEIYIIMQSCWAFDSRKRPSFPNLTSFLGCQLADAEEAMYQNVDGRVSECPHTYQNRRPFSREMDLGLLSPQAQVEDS
Chain of Receptor-type tyrosine-protein kinase FLT3 (Homo sapiens) (P36888 whole entry, the tested form may be a part): as the sequence (P36888 whole entry, looked up, change not shown, the tested form may be a part) above
Chain of Mitotic checkpoint serine/threonine-protein kinase BUB1 (Homo sapiens) (O43683 whole entry, looked up, the tested form may be a part): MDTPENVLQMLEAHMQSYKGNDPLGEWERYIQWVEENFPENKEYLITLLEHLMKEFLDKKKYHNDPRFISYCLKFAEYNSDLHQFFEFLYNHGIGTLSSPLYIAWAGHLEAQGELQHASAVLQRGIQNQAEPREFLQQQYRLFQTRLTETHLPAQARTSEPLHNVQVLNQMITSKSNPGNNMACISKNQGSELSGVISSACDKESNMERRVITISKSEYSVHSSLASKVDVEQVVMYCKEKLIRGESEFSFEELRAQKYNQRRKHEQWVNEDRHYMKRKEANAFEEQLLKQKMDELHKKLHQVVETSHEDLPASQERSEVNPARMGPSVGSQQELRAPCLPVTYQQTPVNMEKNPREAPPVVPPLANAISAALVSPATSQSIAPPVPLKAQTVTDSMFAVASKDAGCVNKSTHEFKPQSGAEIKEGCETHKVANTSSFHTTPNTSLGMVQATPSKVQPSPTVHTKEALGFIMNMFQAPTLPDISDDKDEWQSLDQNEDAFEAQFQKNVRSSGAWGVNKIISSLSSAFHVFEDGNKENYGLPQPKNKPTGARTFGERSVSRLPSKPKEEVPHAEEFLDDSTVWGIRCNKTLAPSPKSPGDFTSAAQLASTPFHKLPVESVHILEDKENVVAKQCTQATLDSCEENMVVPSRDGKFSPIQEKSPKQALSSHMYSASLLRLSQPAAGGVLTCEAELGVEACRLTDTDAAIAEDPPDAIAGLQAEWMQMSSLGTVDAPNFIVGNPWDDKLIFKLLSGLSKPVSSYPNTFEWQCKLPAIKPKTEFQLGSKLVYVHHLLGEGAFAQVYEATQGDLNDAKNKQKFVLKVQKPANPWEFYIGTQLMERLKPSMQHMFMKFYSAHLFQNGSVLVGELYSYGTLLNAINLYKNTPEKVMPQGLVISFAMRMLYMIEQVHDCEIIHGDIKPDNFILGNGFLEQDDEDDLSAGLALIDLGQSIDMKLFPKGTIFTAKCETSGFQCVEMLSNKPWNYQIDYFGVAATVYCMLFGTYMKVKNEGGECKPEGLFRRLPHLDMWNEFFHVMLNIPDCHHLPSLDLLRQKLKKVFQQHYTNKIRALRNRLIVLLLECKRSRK
Chain of Ribosomal protein S6 kinase alpha-2 (Homo sapiens) (Q15349 whole entry, the tested form may be a part): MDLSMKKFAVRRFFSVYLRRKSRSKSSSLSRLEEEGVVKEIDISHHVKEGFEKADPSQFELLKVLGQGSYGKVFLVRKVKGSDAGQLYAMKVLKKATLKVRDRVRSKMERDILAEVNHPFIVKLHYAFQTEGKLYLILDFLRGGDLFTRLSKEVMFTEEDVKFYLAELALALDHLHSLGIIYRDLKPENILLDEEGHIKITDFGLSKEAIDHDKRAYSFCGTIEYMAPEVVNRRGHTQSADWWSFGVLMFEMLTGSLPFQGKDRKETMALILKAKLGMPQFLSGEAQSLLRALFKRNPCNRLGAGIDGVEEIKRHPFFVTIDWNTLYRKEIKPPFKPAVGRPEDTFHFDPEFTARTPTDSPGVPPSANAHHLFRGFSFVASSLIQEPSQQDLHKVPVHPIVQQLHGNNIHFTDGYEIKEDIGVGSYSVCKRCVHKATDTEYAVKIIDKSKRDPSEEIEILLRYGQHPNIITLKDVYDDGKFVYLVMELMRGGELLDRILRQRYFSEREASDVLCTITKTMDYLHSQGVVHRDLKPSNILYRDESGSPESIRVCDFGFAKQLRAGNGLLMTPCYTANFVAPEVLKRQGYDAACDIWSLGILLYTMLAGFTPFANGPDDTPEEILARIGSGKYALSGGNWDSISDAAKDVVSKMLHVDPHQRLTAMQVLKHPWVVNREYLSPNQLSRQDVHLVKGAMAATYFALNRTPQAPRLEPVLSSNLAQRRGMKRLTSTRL
Chain of Serine/threonine-protein kinase 32C (Homo sapiens) (Q86UX6 whole entry, the tested form may be a part): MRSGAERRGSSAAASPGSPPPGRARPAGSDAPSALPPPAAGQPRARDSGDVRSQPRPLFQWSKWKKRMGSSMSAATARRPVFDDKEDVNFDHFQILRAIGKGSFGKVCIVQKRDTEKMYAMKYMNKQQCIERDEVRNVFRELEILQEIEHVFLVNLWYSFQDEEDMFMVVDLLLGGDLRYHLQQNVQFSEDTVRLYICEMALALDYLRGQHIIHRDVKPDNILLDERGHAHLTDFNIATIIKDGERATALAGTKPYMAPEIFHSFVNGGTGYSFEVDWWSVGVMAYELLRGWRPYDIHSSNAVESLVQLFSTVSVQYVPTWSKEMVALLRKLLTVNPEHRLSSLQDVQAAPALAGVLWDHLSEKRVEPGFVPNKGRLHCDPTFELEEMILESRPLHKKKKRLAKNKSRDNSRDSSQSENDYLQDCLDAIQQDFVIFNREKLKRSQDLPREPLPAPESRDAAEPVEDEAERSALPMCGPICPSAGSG
Chain of Cyclin-dependent kinase 9 (Homo sapiens) (P50750 whole entry, the tested form may be a part): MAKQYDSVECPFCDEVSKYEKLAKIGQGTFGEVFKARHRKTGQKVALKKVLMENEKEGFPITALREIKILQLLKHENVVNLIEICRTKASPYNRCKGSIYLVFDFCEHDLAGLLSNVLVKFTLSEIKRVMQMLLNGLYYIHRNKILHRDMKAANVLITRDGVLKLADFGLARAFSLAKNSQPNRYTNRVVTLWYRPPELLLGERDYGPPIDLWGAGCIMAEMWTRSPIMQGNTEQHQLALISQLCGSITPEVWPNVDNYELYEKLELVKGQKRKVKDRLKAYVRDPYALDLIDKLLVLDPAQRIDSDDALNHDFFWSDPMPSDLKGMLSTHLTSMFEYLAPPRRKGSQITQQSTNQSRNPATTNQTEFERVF

Work on `O=C(Nc1cccc([C@@H]2CN(c3ncnc4[nH]ccc34)CCN2CCO)c1)Nc1c(F)cccc1N1CCCC1` yielded an inhibition [1] of 94%, an inhibition [2] of 100% and an inhibition [3] of 100%. For the same compound, the inhibition [4] was 100%, the inhibition [5] was 94% and the inhibition [6] was 100%. For the same compound, the inhibition [7] was 81%, the inhibition [8] was 86% and the inhibition [9] was 52%. The inhibition [10] was 100%, the inhibition [11] was 100% and the inhibition [12] was 93%. The inhibition [13] was 100%.

Work on `O=C(Nc1cccc([C@H]2CCCN(c3ncnc4[nH]ccc34)C2)c1)Nc1ccccc1N1CCCC1` yielded an inhibition [14] of 62%, an inhibition [15] of 78% and an inhibition [16] of 48%. It also gave an inhibition [17] of 53%, an inhibition [18] of 8.5% and an inhibition [19] of 30%. The inhibition [20] was 55%, the inhibition [21] was 43% and the inhibition [22] was 83%. For the same compound, the inhibition [23] was 93%, the inhibition [24] was 15% and the inhibition [25] was 71%. It also gave an inhibition [26] of 7.4% and an inhibition [27] of 18%.
